molecular target: KRasG12C (M1-K169, biotinylated on the N-terminus) (Homo sapiens (Human), UniProt P01116, G12C); assay: Covalent competition assay (scintillation proximity assay, competition with radiolabeled covalent probe Compound B); assay type: binding; conditions: in vitro KRASG12C activity; 10 nM KRasG12C:GDP, 25 nM radio-ligand and 475 nM unlabelled ligand, incubated 2 hours; read-out: Covalent Competition Assay IC50
How it was run: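 Biotinylated KRasG12C (M1-K169):GDP incubated 2 h with agitation with serially diluted compounds premixed with a fixed concentration of radiolabeled covalent probe; scintillation proximity read-out of competition for covalent modification. Buffer 20 mM Tris-HCl pH 7.5, 150 mM NaCl, 0.1 mM MgCl2, 0.01% Tween-20. IC50 from 4-parameter fit.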

IC50 [nM]	Compound
51	C=CC(=O)N1CC2(CC(n3nc(-c4ccc(OCCOC)cc4F)c(-c4c(Cl)c(C)cc5[nH]ncc45)c3C)C2)C1 (single isomer, unassigned) [Example 60a, 1-(6-{(4M)-4-(5-Chloro-6-methyl-1H-indazol-4-yl)-3-[2-fluoro-4-(2-methoxyethoxy)phenyl]-5-methyl-1H-pryazol-1-yl}-2-azaspiro[3.3]heptan-2-yl)prop2-en-1-one]
> 5000	C=CC(=O)N1CC2(CC(n3nc(-c4ccc(OCCOC)cc4F)c(-c4c(Cl)c(C)cc5[nH]ncc45)c3C)C2)C1 (single isomer, unassigned) [Example 60b, 1-(6-(4-(5-chloro-6-methyl-1H-indazol-4-yl)-3-(2-fluoro-4-(2-methoxyethoxy)phenyl)-5-methyl-1H-pyrazol-1-yl)-2-azaspiro[3.3]heptan-2-yl)prop-2-en-1-one]
27	C=CC(=O)N1CC2(CC(n3nc(-c4ccc(NCCOC)cc4F)c(-c4c(Cl)c(C)cc5[nH]ncc45)c3C)C2)C1 (single isomer, unassigned) [Example 61a, 1-(6-(4-(5-chloro-6-methyl-1H-indazol-4-yl)-3-(2-fluoro-4-((2-methoxyethyl)amino)phenyl)-5-methyl-1H-pyrazol-1-yl)-2-azaspiro[3.3]heptan-2-yl)prop-2-en-1-one]
> 5000	C=CC(=O)N1CC2(CC(n3nc(-c4ccc(NCCOC)cc4F)c(-c4c(Cl)c(C)cc5[nH]ncc45)c3C)C2)C1 (single isomer, unassigned) [Example 61b, 1-(6-(4-(5-chloro-6-methyl-1H-indazol-4-yl)-3-(2-fluoro-4-((2-methoxyethyl)amino)phenyl)-5-methyl-1H-pyrazol-1-yl)-2-azaspiro[3.3]heptan-2-yl)prop-2-en-1-one]
45	C=CC(=O)N1CC2(CC(n3nc(-c4ccc(C(=O)NCCOC)cc4)c(-c4c(Cl)c(C)cc5[nH]ncc45)c3C)C2)C1 (single isomer, unassigned) [Example 62a, 4-(1-(2-acryloyl-2-azaspiro[3.3]heptan-6-yl)-4-(5-chloro-6-methyl-1H-indazol-4-yl)-5-methyl-1H-pyrazol-3-yl)-N-(2-methoxyethyl)benzamide]
19300	C=CC(=O)N1CC2(CC(n3nc(-c4ccc(C(=O)NCCOC)cc4)c(-c4c(Cl)c(C)cc5[nH]ncc45)c3C)C2)C1 (single isomer, unassigned) [Example 62b, 4-(1-(2-acryloyl-2-azaspiro[3.3]heptan-6-yl)-4-(5-chloro-6-methyl-1H-indazol-4-yl)-5-methyl-1H-pyrazol-3-yl)-N-(2-methoxyethyl)benzamide]
88	C=CC(=O)N1CC2(CC(n3nc(-c4ccc(C(=O)NCCOC)c(F)c4)c(-c4c(Cl)c(C)cc5[nH]ncc45)c3C)C2)C1 (single isomer, unassigned) [Example 63a]
33800	C=CC(=O)N1CC2(CC(n3nc(-c4ccc(C(=O)NCCOC)c(F)c4)c(-c4c(Cl)c(C)cc5[nH]ncc45)c3C)C2)C1 (single isomer, unassigned) [Example 63b]
55	C=CC(=O)N1CC2(CC(n3nc(-c4ccc(C(=O)NCCOC)nc4)c(-c4c(Cl)c(C)cc5[nH]ncc45)c3C)C2)C1 (single isomer, unassigned) [Example 64a]
24500	C=CC(=O)N1CC2(CC(n3nc(-c4ccc(C(=O)NCCOC)nc4)c(-c4c(Cl)c(C)cc5[nH]ncc45)c3C)C2)C1 (single isomer, unassigned) [Example 64b]
46	C=CC(=O)N1CC2(CC(n3nc(-c4ccc(C(=O)NCCN(C)C)cc4)c(-c4c(Cl)c(C)cc5[nH]ncc45)c3C)C2)C1 (single isomer, unassigned) [Example 65a]
17400	C=CC(=O)N1CC2(CC(n3nc(-c4ccc(C(=O)NCCN(C)C)cc4)c(-c4c(Cl)c(C)cc5[nH]ncc45)c3C)C2)C1 (single isomer, unassigned) [Example 65b]
240	C=CC(=O)N1CC2(CC(n3nc(-c4ccc(C(=O)N(C)CCOC)cc4)c(-c4c(Cl)c(C)cc5[nH]ncc45)c3C)C2)C1 (single isomer, unassigned) [Example 66a, 4-(1-(2-acryloyl-2-azaspiro[3.3]heptan-6-yl)-4-(5-chloro-6-methyl-1H-indazol-4-yl)-5-methyl-1H-pyrazol-3-yl)-N-(2-methoxyethyl)-N-methylbenzamide]
4300	C=CC(=O)N1CC2(CC(n3nc(-c4ccc(C(=O)N(C)CCOC)cc4)c(-c4c(Cl)c(C)cc5[nH]ncc45)c3C)C2)C1 (single isomer, unassigned) [Example 66b, 4-(1-(2-acryloyl-2-azaspiro[3.3]heptan-6-yl)-4-(5-chloro-6-methyl-1H-indazol-4-yl)-5-methyl-1H-pyrazol-3-yl)-N-(2-methoxyethyl)-N-methylbenzamide]
202	C=CC(=O)N1CC2(CC(n3nc(-c4ccc(C(=O)N(C)CC(C)(C)O)cc4)c(-c4c(Cl)c(C)cc5[nH]ncc45)c3C)C2)C1 (single isomer, unassigned) [Example 67a]
12100	C=CC(=O)N1CC2(CC(n3nc(-c4ccc(C(=O)N(C)CC(C)(C)O)cc4)c(-c4c(Cl)c(C)cc5[nH]ncc45)c3C)C2)C1 (single isomer, unassigned) [Example 67b]
59	C=CC(=O)N1CC2(CC(n3nc(-c4ccc(C(=O)O)cc4)c(-c4c(Cl)c(C)cc5[nH]ncc45)c3C)C2)C1 (single isomer, unassigned) [Example 68a]
1900	C=CC(=O)N1CC2(CC(n3nc(-c4ccc(C(=O)O)cc4)c(-c4c(Cl)c(C)cc5[nH]ncc45)c3C)C2)C1 (single isomer, unassigned) [Example 68b]
30	C=CC(=O)N1CC2(CC(n3nc(-c4ccccc4)c(-c4c(Cl)c(C)cc5[nH]nc(N)c45)c3C)C2)C1 (single isomer, unassigned) [Example 70a, 1-{6-[(4M)-4-(3-Amino-5-chloro-6-methyl-1H-indazol-4-yl)-5-methyl-3-phenyl-1H-pyrazol-1-yl]-2-azaspiro[3.3]heptan-2-yl}prop-2-en-1-one]
2100	C=CC(=O)N1CC2(CC(n3nc(-c4ccccc4)c(-c4c(Cl)c(C)cc5[nH]nc(N)c45)c3C)C2)C1 (single isomer, unassigned) [Example 70b, 1-(6-(4-(3-amino-5-chloro-6-methyl-1H-indazol-4-yl)-5-methyl-3-phenyl-1H-pyrazol-1-yl)-2-azaspiro[3.3]heptan-2-yl)prop-2-en-1-one]
101	C=CC(=O)N1CC2(CC(n3nc(-c4ccc5nnccc5c4)c(-c4c(Cl)c(C)cc5[nH]ncc45)c3C)C2)C1 (single isomer, unassigned) [Example 71a, 1-(6-(4-(5-chloro-6-methyl-1H-indazol-4-yl)-3-(cinnolin-6-yl)-5-methyl-1H-pyrazol-1-yl)-2-azaspiro[3.3]heptan-2-yl)prop-2-en-1-one]
> 5000	C=CC(=O)N1CC2(CC(n3nc(-c4ccc5nnccc5c4)c(-c4c(Cl)c(C)cc5[nH]ncc45)c3C)C2)C1 (single isomer, unassigned) [Example 71b, 1-(6-(4-(5-chloro-6-methyl-1H-indazol-4-yl)-3-(cinnolin-6-yl)-5-methyl-1H-pyrazol-1-yl)-2-azaspiro[3.3]heptan-2-yl)prop-2-en-1-one]
306	C=CC(=O)N1CC2(CC(n3nc(-c4ccc5c(c4)CS(=O)(=O)C5)c(-c4c(Cl)c(C)cc5[nH]ncc45)c3C)C2)C1 (single isomer, unassigned) [Example 72a]
24000	C=CC(=O)N1CC2(CC(n3nc(-c4ccc5c(c4)CS(=O)(=O)C5)c(-c4c(Cl)c(C)cc5[nH]ncc45)c3C)C2)C1 (single isomer, unassigned) [Example 72b]
5310	C=CC(=O)N1CC2(CC(n3nc(C4=CN5CC(C)(C)N=C5C(F)=C4)c(-c4c(Cl)c(C)cc5[nH]ncc45)c3C)C2)C1 (single isomer, unassigned) [Example 73a]
> 50000	C=CC(=O)N1CC2(CC(n3nc(C4=CN5CC(C)(C)N=C5C(F)=C4)c(-c4c(Cl)c(C)cc5[nH]ncc45)c3C)C2)C1 (single isomer, unassigned) [Example 73b]
1550	C=CC(=O)N1CC2(CC(n3nc(-c4c(C)cncc4C)c(-c4c(Cl)c(C)cc5[nH]ncc45)c3C)C2)C1 (single isomer, unassigned) [Example 74a]
> 50000	C=CC(=O)N1CC2(CC(n3nc(-c4c(C)cncc4C)c(-c4c(Cl)c(C)cc5[nH]ncc45)c3C)C2)C1 (single isomer, unassigned) [Example 74b]
251	C=CC(=O)N1CC2(CC(n3nc(-c4ccc5c(c4)CN(C)C5)c(-c4c(Cl)c(C)cc5[nH]ncc45)c3C)C2)C1 (single isomer, unassigned) [Example 75a]
> 50000	C=CC(=O)N1CC2(CC(n3nc(-c4ccc5c(c4)CN(C)C5)c(-c4c(Cl)c(C)cc5[nH]ncc45)c3C)C2)C1 (single isomer, unassigned) [Example 75b]

Compound	IC50 [nM]
C=CC(=O)N1CC2(CC(n3nc(-c4ccc5nn(CCOC)cc5c4)c(-c4c(Cl)c(C)cc5[nH]nc(N)c45)c3C)C2)C1 (single isomer, unassigned) [Example 69a, 1-(6-{(4M)-4-(3-Amino-5-chloro-6-methyl-1H-indazol-4-yl)-3-[2-(2-methoxyethyl)-2H-indazol-5-yl]-5-methyl-1H-pyrazol-1-yl}-2-azaspiro[3.3]heptan-2-yl)prop-2-en-1-one]	9
C=CC(=O)N1CC2(CC(n3nc(-c4ccc5nn(CCOC)cc5c4)c(-c4c(Cl)c(C)cc5[nH]nc(N)c45)c3C)C2)C1 (single isomer, unassigned) [Example 69b, 1-(6-(4-(3-amino-5-chloro-6-methyl-1H-indazol-4-yl)-3-(2-(2-methoxyethyl)-2H-indazol-5-yl)-5-methyl-1H-pyrazol-1-yl)-2-azaspiro[3.3]heptan-2-yl)prop-2-en-1-one]	840

— patent US11702409B2, “Pyrazolyl derivatives useful as anti-cancer agents” (NOVARTIS AG, priority 2019, dated 2023)
